Assay results published in patent US9468643B2, “PDE5 inhibitor compositions and methods for immunotherapy” (The Johns Hopkins University, priority 2005, dated 2016).
Entries after “also recorded” stand apart in the source; their conditions may differ. Where two headings read alike, the source gives them in different places.

Legend:
[1] = tested on: tumor infiltrating CD8+ / CD4+ T cells; assay: Tumor-infiltrating lymphocyte number and activation in sildenafil-treated tumor-bearing mice; type: in vivo, mice (BALB/c)
[2] = tested on: tumor-associated MSCs (CD11b+ cells); assay: In vivo sildenafil treatment of tumor-bearing mice; analysis of purified tumor-associated CD11b+ MSCs (cGMP EIA, Western blot, NO, arginase, IL4Rα flow cytometry); parameters: species or system mice (BALB/c); conditions: sildenafil 20 mg/kg/day in vivo
C26GM colon carcinoma [3] = assay: Adoptive cell transfer (ACT) with sildenafil in C26GM-bearing mice, tumor size; type: in vivo, mice (BALB/c)
[4] = tested on: CT26-WT or C26GM colon carcinoma; assay: Tumor outgrowth after s.c. challenge with CT26-WT or C26GM; type: in vivo, mice (BALB/c); conditions: for anti-tumor efficacy in immune deficient Rag-/- mice: BALB/c Rag-/- mice; for tumor outgrowth: Balb/c mice, CT26-WT or C26GM, sildenafil 20 mg/kg/day, tadalafil 2 mg/kg/day ip, treatment alone
[5] = tested on: tumor-derived CD11b+ MSCs / antigen-specific T cells; assay: MSC suppressive assay (CFSE dilution of antigen-specific T cells admixed with CD11b+ MSCs); type: cell-based, mice; conditions: sildenafil 50 μg/ml
purified CD11b+ MSCs = assay: IL4Rα expression on purified CD11b+ MSCs cultured with sildenafil; type: cell-based, mice; conditions: for IL4Rα expression in cultured MSCs: sildenafil 50 μg/ml in culture; for IFN-γ mediated IL4Rα up-regulation in cultured MSCs: sildenafil 50 μg/ml, IFN-γ 25 ng/ml added on day 2
C26GM colon carcinoma [6] = assay: C26GM tumor outgrowth with sildenafil and anti-CD8 depleting antibody; type: in vivo, mice (BALB/c)
[7] = tested on: PBLs (CD4+ and CD8+ T cells); assay: Proliferation assay of PBLs stimulated with anti-CD3/CD28 antibody-coated beads; type: cell-based, human
tumor = conditions: cited from earlier work; for anti-tumor efficacy as single agent: used alone; for efficacy of antitumor vaccines when used as adjuvant: with vaccines
[8] = human, in vivo, cited from earlier work

CCCc1nn(C)c2c(=O)[nH]c(-c3cc(S(=O)(=O)N4CCN(C)CC4)ccc3OCC)nc12 [sildenafil]
IL-2 production (GFP) by adoptively transferred vaccine-primed CD8+ T cells in the tumor ([1]; BALB/c-IL-2p/GFP splenocytes, sildenafil for 9 days): activated in the tumor microenvironment only with PDE5 inhibition
CD4+ T cell tumor infiltration ([1]; C26GM, day 9, flow cytometry): no increase in CD4^+ T cells
CD8+ T cell tumor infiltration ([1]; C26GM, day 9, flow cytometry): increase in intratumoral CD8^+ T cell infiltration
activation of tumor-infiltrating CD8+ T cells (CD69 and CD25) ([1]; C26GM, day 9, flow cytometry): increased the percentage of activated T cells; also recorded: significantly activated the tumor-infiltrating CD8^+ T cells
CD8+ T cell tumor infiltration ([1]; C26GM, day 9, flow cytometry, listed as Sildenafil): greater CD8^+ tumor infiltration
intratumoral cellular infiltration (hematoxylin-eosin staining) ([1]; CT26WT, day 15, sildenafil 20 mg/kg/day, vs untreated controls): greater intratumoral cellular infiltration
tumor-infiltrating CD8+ cells specific for AH1 (tetramer positive) ([1]; sildenafil-treated group, n=3, untreated 1.19±1.180): 9.08%±0.905
NO production by intratumoral MSCs ([2]; NO3-NO2 in supernatant): lower NO production
NOS2 expression in intratumoral MSCs ([2]; Western blot): down-regulation of NOS2
Arg-1 expression and activity in intratumoral MSCs ([2]; Western blot and arginase assay): down-regulated Arg-1
intracellular cGMP levels in intratumoral MSCs ([2]; competitive enzyme immune assay, vs control group): higher intracellular cGMP levels than the control group
intracellular cGMP in the non-MSC population ([2]; data not shown): No significant differences
IL4Rα expression on intratumoral MSCs ([2]; flow cytometry): significantly reduced IL4Rα expression
tumor outgrowth, sildenafil without adoptive transfer (C26GM colon carcinoma [3]; sildenafil 20 mg/kg/day in drinking water): statistically significant reduction in tumor outgrowth
anti-tumor efficacy, sildenafil coupled with adoptive immunotherapy (ACT) (C26GM colon carcinoma [3]; sildenafil 20 mg/kg/day plus 20×10^6 C26GM-primed splenocytes): greatest anti-tumor efficacy
anti-tumor efficacy in immune deficient Rag-/- mice [4]: lack of anti-tumor efficacy
tumor outgrowth [4]: significantly delayed tumor outgrowth
proliferation (responsiveness) of HA-specific CD4+ and CD8+ T cells in presence of tumor-derived MSCs ([5]; BALB/c, C26GM-derived CD11b+ MSCs): almost completely restored
suppression of OVA-specific CD4+ T cells by MSCs from NOS2+/+ mice ([5]; C57Bl/6 NOS2+/+, B16GM melanoma): reversed MSC suppression
responsiveness of OVA-specific CD4+ T cells with MSCs from NOS2-/- mice ([5]; C57Bl/6 NOS2-/-, B16GM melanoma): did not augment T cell responsiveness
T cell function in the groups lacking CD11b cells ([5]; no MSCs added): absence of a sildenafil-mediated enhancement in T cell function
IL4Rα expression in cultured MSCs (purified CD11b+ MSCs): significantly reduced
IL4Rα expression in cultured MSCs (purified CD11b+ MSCs; listed as Sildenafil): down-regulates IL4Rα in cultured MSCs
IFN-γ mediated IL4Rα up-regulation in cultured MSCs (purified CD11b+ MSCs): significantly reduced
IFN-γ mediated IL4Rα up-regulation in cultured MSCs (purified CD11b+ MSCs; listed as Sildenafil): prevents IFN-γ mediated IL4Rα up-regulation
tumor outgrowth effect of sildenafil with anti-CD8 depleting antibody (C26GM colon carcinoma [6]; anti-CD8 clone 2.43 on days 0, 2, 4, 6): completely abolished by CD8^+ depletion
tumor outgrowth (C26GM colon carcinoma [6]; sildenafil alone): statistically significant reduction in tumor outgrowth
proliferation of isolated CD3+ T cells ([7]; data not shown): unable to increase T cell proliferation
CD4+ and CD8+ proliferation of PBLs from head and neck cancer and multiple myeloma patients ([7]; sildenafil 50 μg/ml, 5 days): restore CD3/CD28-stimulated proliferation of PBLs; also recorded: significantly restored CD4^+ and CD8^+ proliferation in all the examined patients
proliferation of PBLs from healthy donors ([7]; sildenafil 50 μg/ml, 5 days): no effect on PBLs from healthy donors

CC(=O)Oc1ccccc1C(=O)Oc1cccc(CO[N+](=O)[O-])c1 [nitroaspirin]
anti-tumor efficacy as single agent (tumor): no anti-tumor efficacy when used alone
anti-tumor efficacy as single agent (tumor; listed as nitro-aspirin): ineffective as a single agent
efficacy of antitumor vaccines when used as adjuvant (tumor): enhanced the preventive and therapeutic efficacy of antitumor vaccines
efficacy of antitumor vaccines when used as adjuvant (tumor; listed as nitro-aspirin): augmented the anti-tumor efficacy of vaccines on established tumors

CN1CC(=O)N2[C@H](c3ccc4c(c3)OCO4)c3[nH]c4ccccc4c3C[C@@H]2C1=O [tadalafil]
anti-tumor efficacy in immune deficient Rag-/- mice [4]: lack of anti-tumor efficacy
tumor outgrowth [4]: significantly delayed tumor outgrowth
apparent oral clearance (CL/F) ([8]; po): 2.48 L/h
time of peak plasma concentration post-dose ([8]; po): two
mean elimination half-life [8]: about 17.5 h
